Reference: ChEMBL document CHEMBL1201861, “Genomics of Drug Sensitity in Cancer screening data, Wellcome Trust Sanger Institute”

Legend:
Experiment in all cases: cells
CaR-1 = format: functional, cell-based, Homo sapiens; conditions: Homo sapiens, CaR-1
Description: SANGER: Inhibition of human CaR-1 cell growth in a cell viability assay.

ChaGo-K-1 = format: functional, cell-based; conditions: Homo sapiens
Description: SANGER: Inhibition of human ChaGo-K-1 cell growth in a cell viability assay.

DMS-273 = format: functional, cell-based, Homo sapiens; conditions: Homo sapiens, DMS-273
Description: SANGER: Inhibition of human DMS-273 cell growth in a cell viability assay.

DOHH-2 = format: functional, cell-based; conditions: Homo sapiens
Description: SANGER: Inhibition of human DOHH-2 cell growth in a cell viability assay.

DU-145 = format: functional, cell-based, Homo sapiens; conditions: Homo sapiens, DU-145
Description: SANGER: Inhibition of human DU-145 cell growth in a cell viability assay.

EKVX = format: functional, cell-based, Homo sapiens; conditions: Homo sapiens, EKVX
Description: SANGER: Inhibition of human EKVX cell growth in a cell viability assay.

EW-3 = format: functional, cell-based; conditions: Homo sapiens
Description: SANGER: Inhibition of human EW-3 cell growth in a cell viability assay.

HCC 2998 = format: functional, cell-based, Homo sapiens; conditions: Homo sapiens, HCC 2998
Description: SANGER: Inhibition of human HCC2998 cell growth in a cell viability assay.

HCC38 = format: functional, cell-based, Homo sapiens; conditions: Homo sapiens, HCC38
Description: SANGER: Inhibition of human HCC38 cell growth in a cell viability assay.

HDLM-2 = format: functional, cell-based; conditions: Homo sapiens
Description: SANGER: Inhibition of human HDLM-2 cell growth in a cell viability assay.

HN = format: functional, cell-based, Homo sapiens; conditions: Homo sapiens, HN
Description: SANGER: Inhibition of human HN cell growth in a cell viability assay.

HT-29 = format: functional, cell-based, Homo sapiens; conditions: Homo sapiens, HT-29
Description: SANGER: Inhibition of human HT-29 cell growth in a cell viability assay.

HTC-C3 = format: functional, cell-based, Homo sapiens; conditions: Homo sapiens, HTC-C3
Description: SANGER: Inhibition of human HTC-C3 cell growth in a cell viability assay.

IGROV-1 = format: functional, cell-based, Homo sapiens; conditions: Homo sapiens, IGROV-1
Description: SANGER: Inhibition of human IGROV-1 cell growth in a cell viability assay.

KALS-1 = format: functional, cell-based, Homo sapiens; conditions: Homo sapiens, KALS-1
Description: SANGER: Inhibition of human KALS-1 cell growth in a cell viability assay.

KNS-81-FD = format: functional, cell-based, Homo sapiens; conditions: Homo sapiens, KNS-81-FD
Description: SANGER: Inhibition of human KNS-81-FD cell growth in a cell viability assay.

KP-N-YS = format: functional, cell-based; conditions: Homo sapiens
Description: SANGER: Inhibition of human KP-N-YS cell growth in a cell viability assay.

KYSE-510 = format: functional, cell-based, Homo sapiens; conditions: Homo sapiens, KYSE-510
Description: SANGER: Inhibition of human KYSE-510 cell growth in a cell viability assay.

LB1047-RCC = format: functional, cell-based, Homo sapiens; conditions: Homo sapiens, LB1047-RCC
Description: SANGER: Inhibition of human LB1047-RCC cell growth in a cell viability assay.

LB831-BLC = format: functional, cell-based, Homo sapiens; conditions: Homo sapiens, LB831-BLC
Description: SANGER: Inhibition of human LB831-BLC cell growth in a cell viability assay.

LCLC-103H cell line = format: functional, cell-based, Homo sapiens; conditions: Homo sapiens, LCLC-103H
Description: SANGER: Inhibition of human LCLC-103H cell growth in a cell viability assay.

NB10 = format: functional, cell-based, Homo sapiens; conditions: Homo sapiens, NB10
Description: SANGER: Inhibition of human NB10 cell growth in a cell viability assay.

NCI-H1299 = format: functional, cell-based, Homo sapiens; conditions: Homo sapiens, NCI-H1299
Description: SANGER: Inhibition of human NCI-H1299 cell growth in a cell viability assay.

NCI-H2030 = format: functional, cell-based, Homo sapiens; conditions: Homo sapiens, NCI-H2030
Description: SANGER: Inhibition of human NCI-H2030 cell growth in a cell viability assay.

NCI-H28 = format: functional, cell-based, Homo sapiens; conditions: Homo sapiens, NCI-H28
Description: SANGER: Inhibition of human NCI-H28 cell growth in a cell viability assay.

NCI-H69 = format: functional, cell-based; conditions: Homo sapiens
Description: SANGER: Inhibition of human NCI-H69 cell growth in a cell viability assay.

NH-12 = format: functional, cell-based, Homo sapiens; conditions: Homo sapiens, NH-12
Description: SANGER: Inhibition of human NH-12 cell growth in a cell viability assay.

NOS-1 = format: functional, cell-based, Homo sapiens; conditions: Homo sapiens, NOS-1
Description: SANGER: Inhibition of human NOS-1 cell growth in a cell viability assay.

NY = format: functional, cell-based, Homo sapiens; conditions: Homo sapiens, NY
Description: SANGER: Inhibition of human NY cell growth in a cell viability assay.

OAW-42 = format: functional, cell-based, Homo sapiens; conditions: Homo sapiens, OAW-42
Description: SANGER: Inhibition of human OAW-42 cell growth in a cell viability assay.

RKO = format: functional, cell-based, Homo sapiens; conditions: Homo sapiens, RKO
Description: SANGER: Inhibition of human RKO cell growth in a cell viability assay.

RPMI-8226 = format: functional, cell-based; conditions: Homo sapiens
Description: SANGER: Inhibition of human RPMI-8226 cell growth in a cell viability assay.

SK-LMS-1 = format: functional, cell-based, Homo sapiens; conditions: Homo sapiens, SK-LMS-1
Description: SANGER: Inhibition of human SK-LMS-1 cell growth in a cell viability assay.

SK-MEL-28 = format: functional, cell-based; conditions: Homo sapiens
Description: SANGER: Inhibition of human SK-MEL-28 cell growth in a cell viability assay.

SK-MEL-30 = format: functional, cell-based; conditions: Homo sapiens
Description: SANGER: Inhibition of human SK-MEL-30 cell growth in a cell viability assay.

SK-N-AS = format: functional, cell-based, Homo sapiens; conditions: Homo sapiens, SK-N-AS
Description: SANGER: Inhibition of human SK-N-AS cell growth in a cell viability assay.

SW1417 = format: functional, cell-based, Homo sapiens; conditions: Homo sapiens, SW1417
Description: SANGER: Inhibition of human SW1417 cell growth in a cell viability assay.

SW948 = format: functional, cell-based, Homo sapiens; conditions: Homo sapiens, SW948
Description: SANGER: Inhibition of human SW948 cell growth in a cell viability assay.

SW 954 = format: functional, cell-based, Homo sapiens; conditions: Homo sapiens, SW 954
Description: SANGER: Inhibition of human SW954 cell growth in a cell viability assay.

647-V = format: functional, cell-based, Homo sapiens; conditions: Homo sapiens, 647-V
Description: SANGER: Inhibition of human 647-V cell growth in a cell viability assay.

A101D = format: functional, cell-based, Homo sapiens; conditions: Homo sapiens, A101D
Description: SANGER: Inhibition of human A101D cell growth in a cell viability assay.

A3-KAW = format: functional, cell-based; conditions: Homo sapiens
Description: SANGER: Inhibition of human A3-KAW cell growth in a cell viability assay.

A4-Fuk = format: functional, cell-based; conditions: Homo sapiens
Description: SANGER: Inhibition of human A4-Fuk cell growth in a cell viability assay.

AGS = format: functional, cell-based, Homo sapiens; conditions: Homo sapiens, AGS
Description: SANGER: Inhibition of human AGS cell growth in a cell viability assay.

ATN-1 = format: functional, cell-based; conditions: Homo sapiens
Description: SANGER: Inhibition of human ATN-1 cell growth in a cell viability assay.

BFTC-909 = format: functional, cell-based, Homo sapiens; conditions: Homo sapiens, BFTC-909
Description: SANGER: Inhibition of human BFTC-909 cell growth in a cell viability assay.

BHY = format: functional, cell-based, Homo sapiens; conditions: Homo sapiens, BHY
Description: SANGER: Inhibition of human BHY cell growth in a cell viability assay.

C8166 = format: functional, cell-based; conditions: Homo sapiens
Description: SANGER: Inhibition of human C8166 cell growth in a cell viability assay.

UMC-11 = format: functional, cell-based, Homo sapiens; conditions: Homo sapiens, UMC-11
Description: SANGER: Inhibition of human UMC-11 cell growth in a cell viability assay.

no-10 = format: functional, cell-based, Homo sapiens; conditions: Homo sapiens
Description: SANGER: Inhibition of human no-10 cell growth in a cell viability assay.

CAS-1 = format: functional, cell-based, Homo sapiens; conditions: Homo sapiens, CAS-1
Description: SANGER: Inhibition of human CAS-1 cell growth in a cell viability assay.

COLO-680N = format: functional, cell-based, Homo sapiens; conditions: Homo sapiens, COLO-680N
Description: SANGER: Inhibition of human COLO-680N cell growth in a cell viability assay.

## COc1cc([C@@H]2c3cc4c(cc3[C@@H](O[C@@H]3O[C@@H]5CO[C@@H](C)O[C@H]5[C@H](O)[C@H]3O)[C@H]3COC(=O)[C@H]23)OCO4)cc(OC)c1O [ETOPOSIDE]
CaR-1
  IC50: 8.6 µM
ChaGo-K-1
  IC50: 3.79 µM
DMS-273
  IC50: 0.573 µM
DOHH-2
  IC50: 0.347 µM
DU-145
  IC50: 0.591 µM
EKVX
  IC50: > 16 µM
EW-3
  IC50: 14.3 µM
HCC 2998
  IC50: 1.26 µM
HCC38
  IC50: 2.27 µM
HDLM-2
  IC50: 13.8 µM
HN
  IC50: > 16 µM
HT-29
  IC50: 1.98 µM
HTC-C3
  IC50: > 16 µM
IGROV-1
  IC50: 0.171 µM
KALS-1
  IC50: 10.3 µM
KNS-81-FD
  IC50: > 16 µM
KP-N-YS
  IC50: 4.24 µM
KYSE-510
  IC50: 0.566 µM
LB1047-RCC
  IC50: 2.14 µM
LB831-BLC
  IC50: 6.15 µM
LCLC-103H cell line
  IC50: 0.651 µM
NB10
  IC50: 16 µM
NCI-H1299
  IC50: 2.07 µM
NCI-H2030
  IC50: 0.23 µM
NCI-H28
  IC50: > 16 µM
NCI-H69
  IC50: 8.18 µM
NH-12
  IC50: 0.672 µM
NOS-1
  IC50: 3.58 µM
NY
  IC50: 4.49 µM
OAW-42
  IC50: 6.06 µM
RKO
  IC50: 0.471 µM
RPMI-8226
  IC50: 14.3 µM
SK-LMS-1
  IC50: 0.553 µM
SK-MEL-28
  IC50: > 16 µM
SK-MEL-30
  IC50: 8.24 µM
SK-N-AS
  IC50: > 16 µM
SW1417
  IC50: > 16 µM
SW948
  IC50: > 16 µM
SW 954
  IC50: 1.96 µM
647-V
  IC50: 0.487 µM
A101D
  IC50: 1.2 µM
A3-KAW
  IC50: 0.358 µM
A4-Fuk
  IC50: 0.841 µM
AGS
  IC50: 0.318 µM
ATN-1
  IC50: 0.204 µM
BFTC-909
  IC50: 1.16 µM
BHY
  IC50: 1.53 µM
C8166
  IC50: 1.68 µM
UMC-11
  IC50: > 16 µM
no-10
  IC50: 3.49 µM
CAS-1
  IC50: > 16 µM
COLO-680N
  IC50: 8.26 µM

## Cc1cnc(-c2cnc(NCCNc3ccc(C#N)cn3)nc2-c2ccc(Cl)cc2Cl)[nH]1 [LADUVIGLUSIB]
CaR-1
  IC50: > 2.56 µM
ChaGo-K-1
  IC50: > 2.56 µM
DMS-273
  IC50: > 2.56 µM
DOHH-2
  IC50: > 2.56 µM
DU-145
  IC50: > 2.56 µM
EKVX
  IC50: > 2.56 µM
EW-3
  IC50: > 2.56 µM
HCC 2998
  IC50: > 2.56 µM
HCC38
  IC50: > 2.56 µM
HDLM-2
  IC50: > 2.56 µM
HN
  IC50: > 2.56 µM
HT-29
  IC50: > 2.56 µM
HTC-C3
  IC50: > 2.56 µM
IGROV-1
  IC50: > 2.56 µM
KALS-1
  IC50: > 2.56 µM
KNS-81-FD
  IC50: > 2.56 µM
KP-N-YS
  IC50: > 2.56 µM
KYSE-510
  IC50: > 2.56 µM
LB1047-RCC
  IC50: > 2.56 µM
LB831-BLC
  IC50: > 2.56 µM
LCLC-103H cell line
  IC50: > 2.56 µM
NB10
  IC50: > 2.56 µM
NCI-H1299
  IC50: > 2.56 µM
NCI-H2030
  IC50: > 2.56 µM
NCI-H28
  IC50: > 2.56 µM
NCI-H69
  IC50: > 2.56 µM
NH-12
  IC50: > 2.56 µM
NOS-1
  IC50: > 2.56 µM
NY
  IC50: > 2.56 µM
OAW-42
  IC50: > 2.56 µM
RKO
  IC50: > 2.56 µM
RPMI-8226
  IC50: > 2.56 µM
SK-LMS-1
  IC50: > 2.56 µM
SK-MEL-28
  IC50: > 2.56 µM
SK-MEL-30
  IC50: > 2.56 µM
SK-N-AS
  IC50: > 2.56 µM
SW1417
  IC50: > 2.56 µM
SW948
  IC50: > 2.56 µM
SW 954
  IC50: > 2.56 µM
647-V
  IC50: > 2.56 µM
A101D
  IC50: > 2.56 µM
A3-KAW
  IC50: > 2.56 µM
A4-Fuk
  IC50: > 2.56 µM
AGS
  IC50: > 2.56 µM
ATN-1
  IC50: > 2.56 µM
BFTC-909
  IC50: > 2.56 µM
BHY
  IC50: > 2.56 µM
C8166
  IC50: > 2.56 µM
UMC-11
  IC50: > 2.56 µM
no-10
  IC50: > 2.56 µM
CAS-1
  IC50: > 2.56 µM
COLO-680N
  IC50: > 2.56 µM
